# Experimental data taken from US10206890B2, “Pharmaceutical combination” (priority 2008, dated 2019).
# Where “and” joins values, the source holds several entries; their conditions need not be identical. Equal values may be shown once. Where a name gives a salt, the structure may show the parent alone. Read-outs that look alike come from different tables or passages of the source.
# Legend:
# [1] = test system: male Sprague-Dawley rats with ligated left L5/L6 spinal nerves (tactile allodynia); assay: In vivo experiments according to Chung (spinal nerve ligation, tactile allodynia, electronic von Frey; isobolographic analysis); set-up: species or system rat; settings: for contra-lateral paw withdrawal threshold, anti-nociceptive effect: 10 mg/kg i.v.; for ED50 (95% confidence interval), anti-allodynic efficacy, single substance / efficacy, increase in the withdrawal threshold of the ipsi-lateral hind paw: i.v.; for ED50 (95% confidence interval), anti-allodynic efficacy, single substance: calculated from peak effect vs. control values at 30 min after administration; for efficacy, increase in the withdrawal threshold of the ipsi-lateral hind paw: maximal efficacy over the doses tested (combination: highest dose 1 mg/kg+2.5 mg/kg), peak effect 30 min after administration
# Source text: The weight ratios of components (a) and (b) that will lead to a supra-additive effect/synergistic effect of the inventive compositions may be determined in the test of Kim & Chung as described in Kim S H, Chung J M. An experimental model for peripheral mononeuropathy produced by segmental spinal nerve ligation in the rat. Pain 1992; 50: 355-63. Said reference is hereby incorporated by reference and forms part of the disclosure.
# Ligatures were applied to the left L5/L6 spinal nerves of male Sprague-Dawley rats (140-160 g body weight, Janvier, Genest St. Isle, France). […] Three to four weeks after the operation the tactile allodynia threshold baseline (withdrawal threshold) was measured on the ipsilateral and contralateral hind paw by an electronic von Frey anaesthesiometer (Somedic, Schweden). After test and measurement of the baseline, (1R,2R)-3-(3-dimethylamino-1-ethyl-2-methyl-propyl)-phenol hydrochloride (hereinafter referred to as tapentadol hydrochloride or tapentadol-HCl), (S)-pregabalin as well as the inventive combination of tapentadol-HCl and (S)-pregabalin were each dissolved in 0.9% NaCl solution and injected by the intravenous (i.v.) route (application volume 5 ml/kg). Animals were randomly assigned to groups of 10 for each test dose and vehicle (0.9% NaCl solution) and tactile withdrawal thresholds were tested 0.5 h before administration and on several time points (0.5, 1 and 3 hours) after intravenous administration. Ipsi- and contralateral hindpaws were tested. The median of the withdrawal threshold for each animal at a given time is calculated from five individual stimulations with the electronic von Frey filament. Withdrawal thresholds of the injured paws are expressed as % MPE (Maximum possible effect) comparing predrug threshold of Chung-Animals (=0% MPE) and control threshold of sham-animals (100% MPE). A cut-off is set at 100% MPE. The effect of each compound and vehicle is calculated for each testing time point as interindividual % MPE value.
# Data (anti-allodynic efficacy (% MPE), ipsi-lateral, paw withdrawal threshold (g), ipsi- and conralateral) were analysed by means of a two-factor analysis of variance (ANOVA) with repeated measures. In case of a significant treatment effect, post hoc analysis with Bonferroni adjustment was performed. Results were considered statistically significant if P<0.05.
# [2] = test system: rats with tightly ligated L5, L6 spinal nerves (tactile allodynia); assay: b) In vivo experiments according to Chung (anti-allodynic testing, single dose combinations vs sum of single effects); set-up: species or system rat; settings: 30 min, ± SEM
# Source text: The left L5 and L6 spinal nerves were exposed by removing a small piece of the paravertebral muscle and a part of the left spinous process of the L5 lumbar vertebra. The L5 and L6 spinal nerves were then carefully isolated and tightly ligated with silk (NC-silk black, USP 5/0, metric 1, Braun Melsungen AG, Melsungen, FRG). After checking hemostasis, the muscle and the adjacent fascia were closed with sutures and the skin was closed with sutures.
# After operation, animals were allowed to recover for one week. Animals develop tactile allodynia which is stable for at least five weeks. For the assessment of tactile allodynia the rats were placed on a metal mesh covered with a plastic dome and were allowed to habituate until the exploratory behaviour diminished. Threshold for tactile allodynia was measured with an electronic von Frey anesthesiometer (Somedic, Sweden). Animals randomly assigned to groups of 10 for each test dose and vehicle, were tested 0.5 h before administration and on several time points after administration. The median of the withdrawal threshold for each animal at a given time is calculated from five individual stimulations with the electronic von Frey filament. Withdrawal thresholds of the injured paws are expressed as % maximal possible effect (% MPE) comparing predrug threshold of Chung-animals (=0% MPE) and control threshold of sham-animals (=100% MPE). A cut-off is set at 100% MPE. The effect of each compound and vehicle is calculated for each testing time point (e.g. 0.5, 1, 3 h post administration) as interindividual % MPE value (±SEM). Anti-allodynic efficacy is defined as increase of ipsi-lateral withdrawal threshold without effect on contra-lateral withdrawal threshold. Ten animals have been used in each group.
# Effects of drug combinations are compared to the theoretical sum of the effects of each drug tested alone.
# [3] = test system: inflamed rat hind paw (carrageenan); assay: c) In vivo experiments according to Randall-Selitto (carrageenan inflammatory pain, mechanical nociceptive threshold; isobolographic analysis; settings: peak effect 15 min p. appl., interval in brackets; for ED50: Rattus norvegicus, 0.25 h
# Procedure: The weight ratios of the components (a) and (b) that will lead to a supra-additive effect (synergistic effect) of the inventive pharmaceutical composition may be determined via the test of Randall and Selitto as described in Arch. Int. Pharmacodyn., 1957, 111, 409 to 419, which is a model for inflammatory pain. The respective part of the literature is hereby incorporated by reference and forms part of the present disclosure.
# Acute inflammation is induced by an intraplantar injection of 0.1 ml of a carrageenan solution (0.5% in distilled water) into one hind paw. The mechanical nociceptive threshold is measured 4 hours after carrageenan injection using an Algesiometer (Ugo Basile, Italy). The device generates a mechanical force with a linear increase over time. The force is applied to the dorsal surface of the inflamed rat hind paw via a cone-shaped stylus with a rounded tip (2 mm tip diameter). The nociceptive threshold is defined as the force (in grams) at which the rat vocalises (cut-off force 250 g). The mechanical nociceptive threshold is measured at different timepoints after the drug or vehicle administration. The antinociceptive and antihyperalgesic activity of the tested substance is expressed as percentages of the maximal possible effect (% MPE). The group size is n=10.
# The interactions studies presented herein were performed using equieffective doses of the two components, calculated from the ratio of the respective ED50 values of the components if administered alone.
# The route of administration was intravenous (i.v.) for Tapentadol hydrochloride (A) and intraperitoneal (i.p.) for the anticonvulsants (antiepileptics) Lamotrigine, Lacosamide, Levetiracetam and Retigabine dihydrochloride. […] According to their respective timepoint of peak effect, A was applied 15 min and the anticonvulsant component 15 min before timepoint of measurement of the interaction-experiments (i. e. both components were applied simultaneously). Thus, the time point of ED50 calculation of the combination corresponds to the timepoint of the peak effect of the respective compound.
# [4] = ip, read-out: ED50 of the anticonvulsant applied alone, i.p.
# [5] = ip, i.p., read-out: ED50 of the anticonvulsant applied alone
smiles,measurement,setting,value
CC(C)C[C@H](CN)CC(=O)O [(S)-pregabalin],"contra-lateral paw withdrawal threshold, anti-nociceptive effect",[1],significant anti-nociceptive effects
same,"ED50 (95% confidence interval), anti-allodynic efficacy, single substance",[1],4.20 (3.37-5.43) mg/kg i.v.
same,"efficacy, increase in the withdrawal threshold of the ipsi-lateral hind paw",[1],67 % MPE
NCC1(CC(=O)O)CCCCC1 [Gabapentin],Effect % MPE (time after administration of Tapentadol hydrochloride),[2]; single substance 10 mg/kg iv (20 min before Tapentadol hydrochloride time point),3 ± 3% (30 min) % MPE
COC[C@@H](NC(C)=O)C(=O)NCc1ccccc1 [Lacosamide],ED50,[3]; [4],35.9 mg/kg
same,Effect % MPE (time after administration of Tapentadol hydrochloride),[2]; single substance 3 mg/kg iv,24 ± 4% (30 min) % MPE
Nc1nnc(-c2cccc(Cl)c2Cl)c(N)n1 [Lamotrigine],ED50,[3]; [5],35.3 mg/kg
same,ED50 of the anticonvulsant applied alone,[3]; i.p.,35.25 mg/kg
CC[C@@H](C(N)=O)N1CCCC1=O [Levetiracetam],ED50,[3]; [5],986 mg/kg
same,Effect % MPE (time after administration of Tapentadol hydrochloride),[2]; single substance 20 mg/kg iv,16 ± 4% (30 min) % MPE
CCOC(=O)Nc1ccc(NCc2ccc(F)cc2)cc1N [Retigabine dihydrochloride],ED50,[3]; [4],5.09 mg/kg
"CC[C@@H](c1cccc(O)c1)[C@@H](C)CN(C)C [Tapentadol hydrochloride, (1R,2R)-3-(3-dimethylamino-1-ethyl-2-methyl-propyl)-phenol hydrochloride]","contra-lateral paw withdrawal threshold, anti-nociceptive effect",[1],significant anti-nociceptive effects
same,"ED50 (95% confidence interval), anti-allodynic efficacy, single substance",[1],1.65 (1.20-2.35) mg/kg i.v.
same,"efficacy, increase in the withdrawal threshold of the ipsi-lateral hind paw",[1],94 % MPE
same,ED50,"[3]; iv, read-out: ED50 of A (Tapentadol hydrochloride) applied alone, i.v.",1.75 mg/kg
same,ED50 of A (Tapentadol hydrochloride) applied alone,"[3]; i.v., listed as A, hydrochloride",1.747 mg/kg and 1.749 mg/kg
same,Effect % MPE (time after administration of Tapentadol hydrochloride),"[2]; single substance 1 mg/kg iv, hydrochloride",18 ± 4% (30 min) % MPE and 13 ± 5% (30 min) % MPE
CC1(C)O[C@@H]2[C@@H](CO[C@@]3(COS(N)(=O)=O)OC(C)(C)O[C@@H]23)O1 [Topiramate],Effect % MPE (time after administration of Tapentadol hydrochloride),[2]; single substance 1 mg/kg iv,22 ± 3% (30 min) % MPE
